{"source": "patent US8440645B2", "about": "“Ceramide production promoter” (Kao Corporation, priority 2008, dated 2013)", "key": {"[1]": {"test_system": "Normal human epidermal keratinocytes (NHEK(F))", "test": "Ceramide production promotion test (Test Example 3)", "type": "cell-based", "details": "5 mM solution added in an amount of 1%, 3 days culture", "experimental": "Normal human epidermal keratinocytes (NHEK(F)) were seeded into an EpiLife-KG2 (KURABO INDUSTRIES LTD.) 6-well Plate and cultured until the cells became confluent. […] Culture was performed for 3 days, and the cells in each well were separately collected. Lipids were extracted from the collected cells by a Bligh and Dyer method. The extracts were dried with nitrogen, and the residues were redissolved in chloroform and methanol, to thereby prepare lipid samples. Note that the amounts of proteins were determined by the BCA method. The extracted lipids were subjected to horizontal development twice by using thin layer chromatography (TLC) and chloroform:methanol:acetic acid=190:9:1. The resultant were sprayed with a copper sulfate solution and heated on a hot plate, to thereby detect ceramide. Thereafter, the resultant values were divided by respective protein amounts to calculate amounts of ceramide."}, "[2]": {"test_system": "Normal human epidermal keratinocytes (NHEK(F))", "test": "Ceramide production promotion test (Test Example 1)", "type": "cell-based", "details": "3 days culture, control (10% ethanol) defined as 1", "experimental": "Normal human epidermal keratinocytes (NHEK(F)) were seeded into an EpiLife-KG2 (KURABO INDUSTRIES LTD.) 6-well Plate and cultured until the cells became confluent. Thereafter, in replacement of EpiLife-KG2 (containing no proliferation addition factor), Compound 1 (5 mM) and Compound 2 (1 mM) prepared in Production Examples or a control solution (10% ethanol) was added thereto in an amount of 1%. Culture was performed for 3 days, and the cells in each well were separately collected.\nLipids were extracted from the collected cells by Bligh and Dyer method. The extracts were dried with nitrogen, and the residues were redissolved in chloroform and methanol, to thereby prepare lipid samples. Note that the amounts of proteins were determined by a BCA method.\nThe extracted lipids were subjected to horizontal development twice by using thin layer chromatography (TLC) and chloroform:methanol:acetic acid=190:9:1. The resultant was sprayed with a copper sulfate solution and heated on a hot plate, to thereby detect ceramide. Thereafter, the resultant values were divided by respective protein amounts to calculate amounts of ceramide. […] The numerical values shown in the table are relative values when the amount of ceramide in the control is defined as 1."}, "human horny layer": {"test_system": "human horny layer", "test": "Test on effect of improving moisture content in human horny layer (Test Example 2)", "type": "in vivo", "details": "1% Compound 1 solution applied to cheek twice a day, five days a week, 4 weeks; ten men; P<0.1 t-test", "experimental": "Ten men (25 to 40-year-old: mean age 30.5)\nA solution containing 1% Compound 1 and a placebo solution containing only a solvent were used as application samples. The solvent used was 95.0% ethanol:1,3-BG:purified water=20:10:70.\nThe samples were applied twice a day and five days a week. The amount of each sample per application was set to two drops (about 100 μl) from an eye drop bottle.\nThe test was performed by applying the sample containing 1% Compound 1 to one side of the cheek and the placebo solution to the other side for 4 weeks, followed by measuring moisture contents in the horny layer using a Corneometer. The measurement was performed before the application and after the 4-week application at the same regions on the cheek, and the result of the 1% Compound 1-containing sample side was compared with that of the placebo side."}, "[3]": {"details": "control (10% ethanol) defined as 1"}, "[4]": {"details": "control (50% ethanol) defined as 1"}}, "note": "Structures can show the parent of a compound that is named as a salt.", "data": [{"compound": "CCCCCCCCCCCCOCC(O)COP(=O)([O-])[O-].[Na+].[Na+]", "note": "(centres unmarked) [Compound 3, 1-Dodecylglycerol-3-phosphate disodium salt]", "values": [{"measurement": "Amount of ceramide (relative value)", "setting": "[1]; [3]", "value": 3.1}]}, {"compound": "CCCCCCCCCCCCCCCCCCOCC(O)COP(=O)([O-])[O-].[Na+].[Na+]", "note": "(centres unmarked) [Compound 5, 1-Octadecylglycerol-3-phosphate disodium salt]", "values": [{"measurement": "Amount of ceramide (relative value)", "setting": "[1]; [4]", "value": 2.6}]}, {"compound": "1-Isostearylglycerol-3-phosphate monoarginine salt [Compound 7]", "values": [{"measurement": "Amount of ceramide (relative value)", "setting": "[1]; [3]", "value": 18.9}]}, {"compound": "CCCCCCCCCC(CCCCCCC)COCC(O)COP(=O)(O)O", "note": "(centres unmarked) [Compound 6, 1-(2-Heptylundecyl)glycerol-3-phosphate monoarginine salt]", "values": [{"measurement": "Amount of ceramide (relative value)", "setting": "[1]; [3]", "value": 4.0}]}, {"compound": "CCCCOCC(COCCCCCCCCCCCCCCCC(C)C)OP(=O)([O-])[O-].[Na+].[Na+]", "note": "(centres unmarked) [Compound 2, 1-isostearyl-3-butylglycerol-2-phosphate sodium salt]", "values": [{"measurement": "Amount of ceramide (relative value)", "setting": "[2]; 1 mM solution added in an amount of 1%", "value": 1.5}]}, {"compound": "CCCCCCCCCCCCCCOCC(O)COP(=O)(O)O", "note": "(centres unmarked) [Compound 4, 1-Tetradecylglycerol-3-phosphate monoarginine salt]", "values": [{"measurement": "Amount of ceramide (relative value)", "setting": "[1]; [3]", "value": 4.3}]}, {"compound": "1-n-tetradecyl-3-ethylglycerol-2-phosphate arginine salt [Compound 1]", "values": [{"measurement": "Amount of ceramide (relative value)", "setting": "[2]; 5 mM solution added in an amount of 1%", "value": 3.3}, {"measurement": "Moisture content in the horny layer (Corneometer) compared with placebo-applied side", "setting": "human horny layer", "value": "increase"}]}, {"compound": "monoalkyl (having an average alkyl chain length of C13) phosphate potassium salt [Comparative Compound 1, reference compound]", "values": [{"measurement": "Amount of ceramide (relative value)", "setting": "[1]; [4]", "value": 0.6}]}, {"compound": "CCCCCCCCCCC(CCCCCCCC)COCC(O)COP(=O)(O)O", "note": "(centres unmarked) [Compound 9, 1-(2-Octyldodecyl)glycerol-3-phosphate monoarginine salt]", "values": [{"measurement": "Amount of ceramide (relative value)", "setting": "[1]; [3]", "value": 4.1}]}, {"compound": "CCCCCC(C)CCCCCCCCCCCOCC(O)COP(=O)([O-])[O-].[K+].[K+]", "note": "(centres unmarked) [Compound 8, 1-(12-Methylheptadecyl)glycerol-3-phosphate dipotassium salt]", "values": [{"measurement": "Amount of ceramide (relative value)", "setting": "[1]; [3]", "value": 10.4}]}]}
